Assay results: ChEMBL document CHEMBL3774325, “Design, synthesis, and structure-activity relationship study of glycyrrhetinic acid derivatives as potent and selective inhibitors against human carboxylesterase 2” (Eur J Med Chem, 2016)

Experiments:
Liver carboxylesterase 1 = molecular target: T1, Liver carboxylesterase 1 (Homo sapiens, UniProt P23141); experiment: Inhibition of CE1 in human liver microsomes using 2-(2-Benzoyl-3-methoxyphenyl) benzothiazole as substrate preincubated for 10 mins followed by substrate addition measured after 30 mins by LC-UV analysis
T1 sequence (P23141 whole entry): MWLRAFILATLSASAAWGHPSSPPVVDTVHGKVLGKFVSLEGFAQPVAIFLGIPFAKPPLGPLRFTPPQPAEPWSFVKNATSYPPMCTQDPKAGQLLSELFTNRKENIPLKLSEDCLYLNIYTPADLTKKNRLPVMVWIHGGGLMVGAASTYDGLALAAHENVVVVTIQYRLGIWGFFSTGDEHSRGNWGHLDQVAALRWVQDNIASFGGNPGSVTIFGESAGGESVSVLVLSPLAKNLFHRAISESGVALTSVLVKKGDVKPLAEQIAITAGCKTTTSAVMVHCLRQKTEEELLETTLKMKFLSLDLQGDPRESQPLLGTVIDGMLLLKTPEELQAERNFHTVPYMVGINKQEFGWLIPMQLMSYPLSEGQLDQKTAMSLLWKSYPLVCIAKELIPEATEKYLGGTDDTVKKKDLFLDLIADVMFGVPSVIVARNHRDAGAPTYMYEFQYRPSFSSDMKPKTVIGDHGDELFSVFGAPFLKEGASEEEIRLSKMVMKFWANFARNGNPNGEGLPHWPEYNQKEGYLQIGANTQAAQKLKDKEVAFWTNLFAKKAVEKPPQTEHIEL

Homo sapiens = species: Homo sapiens; experiment: Selectivity ratio of IC50 for CE1 in human liver microsomes to IC50 for CE2 in human liver microsomes
Cocaine esterase = molecular target: T2, Cocaine esterase (Homo sapiens, UniProt O00748); experiment: Inhibition of CE2 in human liver microsomes using fluorescein diacetate as substrate preincubated for 10 mins followed by substrate addition measured after 30 mins by LC-UV analysis
T2 sequence (O00748 whole entry): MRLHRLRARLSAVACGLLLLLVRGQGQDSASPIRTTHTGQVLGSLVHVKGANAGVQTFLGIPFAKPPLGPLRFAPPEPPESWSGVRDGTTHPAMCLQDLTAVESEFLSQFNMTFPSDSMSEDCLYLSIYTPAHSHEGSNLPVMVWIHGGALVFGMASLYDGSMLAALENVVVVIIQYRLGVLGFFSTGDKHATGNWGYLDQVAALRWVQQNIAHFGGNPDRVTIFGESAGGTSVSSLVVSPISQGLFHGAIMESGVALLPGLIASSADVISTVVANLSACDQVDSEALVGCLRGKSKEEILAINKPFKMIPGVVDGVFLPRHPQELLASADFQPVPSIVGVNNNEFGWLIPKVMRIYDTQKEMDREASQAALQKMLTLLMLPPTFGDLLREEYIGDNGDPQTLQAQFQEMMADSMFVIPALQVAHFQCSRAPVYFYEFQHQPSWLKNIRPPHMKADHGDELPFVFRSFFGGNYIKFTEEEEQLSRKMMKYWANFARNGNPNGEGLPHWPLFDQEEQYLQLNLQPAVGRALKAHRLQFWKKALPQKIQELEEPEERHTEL

IC50 (Liver carboxylesterase 1) [µM] | IC50 (Cocaine esterase) [µM] | Compound | Ratio IC50 (Homo sapiens)
20.4 |  | CCOC(=O)[C@@]1(C)CC[C@]2(C)CC[C@]3(C)C(=CC[C@@H]4[C@@]5(C)CC[C@H](OC(=O)CCC(=O)O)C(C)(C)[C@@H]5CC[C@]43C)[C@@H]2C1 | 
6.99 | 14.2 | CC1(C)[C@@H](O)CC[C@]2(C)[C@H]3C(=O)C=C4[C@@H]5C[C@@](C)(C(N)=O)CC[C@]5(C)CC[C@@]4(C)[C@]3(C)CC[C@@H]12 | 0.5
> 100 | > 100 | CC(=O)O[C@H]1CC[C@]2(C)[C@H]3C(=O)C=C4[C@@H]5C[C@@](C)(C#N)CC[C@]5(C)CC[C@@]4(C)[C@]3(C)CC[C@H]2C1(C)C | 
> 100 | 0.66 | CCOC(=O)[C@@]1(C)CC[C@]2(C)CC[C@]3(C)C(=CC(=O)[C@@H]4[C@@]5(C)CC[C@H](OC(=O)CCC(=O)O)C(C)(C)[C@@H]5CC[C@]43C)[C@@H]2C1 | 152
9.13 | 3.95 | CN(C)CCOC(=O)[C@@]1(C)CC[C@]2(C)CC[C@]3(C)C(=CC(=O)[C@@H]4[C@@]5(C)CC[C@H](O)C(C)(C)[C@@H]5CC[C@]43C)[C@@H]2C1 | 2.3
3.47 | 4.31 | COc1cc2c(cc1CC=C(C)C)C(=O)C[C@@H](c1ccc(O)cc1)O2 [BAVACHININ A] | 0.8
23.6 |  | CC1(C)C(=O)CC[C@]2(C)[C@H]3CC=C4[C@@H]5C[C@@](C)(C(=O)O)CC[C@]5(C)CC[C@@]4(C)[C@]3(C)CC[C@@H]12 | 
21 |  | CC1(C)[C@@H](O)CC[C@]2(C)[C@H]3C(=O)C=C4[C@@H]5C[C@@](C)(C(=O)O)CC[C@]5(C)CC[C@@]4(C)[C@]3(C)CC[C@@H]12 [ENOXOLONE] | 
11 | 7.36 | CC(=O)O[C@H]1CC[C@]2(C)[C@H]3C(=O)C=C4[C@@H]5C[C@@](C)(C(N)=O)CC[C@]5(C)CC[C@@]4(C)[C@]3(C)CC[C@H]2C1(C)C | 1.5
12.3 | 3.42 | CC(=O)O[C@H]1CC[C@]2(C)[C@H]3C(=O)C=C4[C@@H]5C[C@@](C)(C(=O)OCCN(C)C)CC[C@]5(C)CC[C@@]4(C)[C@]3(C)CC[C@H]2C1(C)C | 3.6
25.1 | 3.99 | CCOC(=O)[C@@]1(C)CC[C@]2(C)CC[C@]3(C)C(=CC[C@@H]4[C@@]5(C)CC[C@H](O)C(C)(C)[C@@H]5CC[C@]43C)[C@@H]2C1 | 6.3

Compound | IC50 (Liver carboxylesterase 1) [µM] | IC50 (Cocaine esterase) [µM] | Ratio IC50 (Homo sapiens)
CC1(C)[C@@H](O)CC[C@]2(C)[C@H]3CC=C4[C@@H]5C[C@@](C)(C(=O)O)CC[C@]5(C)CC[C@@]4(C)[C@]3(C)CC[C@@H]12 | 10.5 |  | 
CC(=O)O[C@H]1CC[C@]2(C)[C@H]3C(=O)C=C4[C@@H]5C[C@@](C)(C(=O)O)CC[C@]5(C)CC[C@@]4(C)[C@]3(C)CC[C@H]2C1(C)C [ACETOXOLONE] | 49.9 |  | 
CCOC(=O)[C@@]1(C)CC[C@]2(C)CC[C@]3(C)C(=CC(=O)[C@@H]4[C@@]5(C)CC[C@H](O)C(C)(C)[C@@H]5CC[C@]43C)[C@@H]2C1 | 26.3 | 5.7 | 4.6
CC1(C)C(=O)CC[C@]2(C)[C@H]3C(=O)C=C4[C@@H]5C[C@@](C)(C(=O)O)CC[C@]5(C)CC[C@@]4(C)[C@]3(C)CC[C@@H]12 | > 100 | > 100 | 
COC(=O)[C@@]1(C)CC[C@]2(C)CC[C@]3(C)C(=CC(=O)[C@@H]4[C@@]5(C)CC[C@H](O)C(C)(C)[C@@H]5CC[C@]43C)[C@@H]2C1 | 22.4 | 5.61 | 4
O=[N+]([O-])c1ccc(OP(=O)(O)Oc2ccc([N+](=O)[O-])cc2)cc1 | 0.14 |  | 
